According to paper PMC8380212, “^18F-labeled tracers targeting fibroblast activation protein” (EJNMMI Radiopharmacy and Chemistry, 2021):

Legend:
wild type HT1080 cells = assay: In vitro binding on wild type HT1080 cells (negative control); type: cell-based
Procedure: The binding properties of the FAPI derivatives were evaluated using the FAP‐transfected HT‐1080‐FAP and CD26 expressing HEK-CD26 cells. All cells were cultivated in Dulbecco's modified Eagle's medium (DMEM) containing 10% fetal calf serum (FCS) at 37 °C/5% carbon dioxide. Cells were seeded in 6-well plates and cultivated to a final confluence of approximately 80–90% (1.2 to 2.0 × 10^6 cells/well). After washing with FCS free medium, for each well ca. 3 kBq of the radiolabeled compound (10–20 GBq/µmol for [^18F]AlF-labeling) was added to the cells in FCS free medium. On completion of the individual incubation time, cells were washed with PBS and treated with 1.4 mL lysis buffer (0.3 m NaOH, 0.2% SDS) before being transferred to measuring tubes. Competition experiments were performed by co-incubation with the unlabeled precursor for 60 min. Radioactivity was determined in a Wizard Gamma Counter (Perkin Elmer), normalized to 10^6 cells and calculated as percentage of the applied dose (%AD). Each experiment was performed in triplicate.
Table 1 summarizes the uptake and EC50 values of the discussed ^18F-labeled FAPI derivatives using the FAP-transfected cell line HT-1080-FAP. Additionally, the lead candidates FAPI-74 to -76 were tested on HEK-CD26 as well as -74 and -75 on wild type HT1080 cells as negative control. […] For FAPI-74, a plateau was already reached after approximately 10 min with 27.2 ± 0.88%AD/10^6cells. […] The EC50 values were all in the low to sub-nanomolar range. Only a neglectable fraction of FAPIs 74–76 were detected on HEK-CD26 cells (0.18–0.24%) as well as on wildtype HT1080 in case of -74 and 75 (< 0.1%).

HT-1080-FAP xenografts = assay: Small animal PET imaging; type: in vivo, BALB/c nu/nu mice
Procedure: Eight-week-old BALB/c nu/nu mice (Charles River) were subcutaneously inoculated with 5 × 10^6 HT-1080-FAP cells. The subcutaneous xenografts were grown at the flanks of the mice. Xenografts were grown to a tumor diameter of 10–15 mm. Mice were anesthetized using isoflurane inhalation. 5–10 MBq of the [^18F]AlF-labeled compounds/ the respective tracer (FAPI-42/52/74/75/76; approx. 0.5 nmol; Am approximately 10–20 GBq/µmol) were injected intravenously for PET imaging. In vivo competition (blocking) experiments with ^68 Ga-FAPI-74 (9 MBq; 18.2 GBq/µmol) were performed by adding 30 nmol of unlabeled FAPI-74 to the injection solution. Images were acquired using a small-animal PET scanner (Inveon, Siemens). Within the first 60 min p.i., a dynamic scan was performed in list mode, followed by a static scan from 120–140 min post injection. Images were reconstructed iteratively using the 3D-OSEM + MAP method (Siemens) and were converted to standardized uptake value (SUV). For the dynamic analysis, 28 frames were reconstructed. Quantification was based on ROI analysis and expressed as SUV.
SUPPLEMENTAL TABLE 1: Tumor-SUVmean values of all mentioned ^18F labeled FAPI-derivatives in HT1080-FAP transplanted nude mice at different time points. The time points 8 min, 22 min and 57 min were selected from the applied 28-frame 3D-OSEM+MAP (Siemens) reconstruction method.

[1] = Determination of logD values (1-octanol / PBS); type: physicochemical; settings: 1-octanol / phosphate buffered saline, pH 7.4; radiolabeled tracer detected by radioactivity in 1-octanol and phosphate buffered saline
Procedure: All experiments for the determination of logD values were performed in triplicate. For the determination by means of radioactivity, around 5 × 10^6 cpm in ca. 1 µL of radioactive stock solutions (water/acetonitrile 1:1) were added to 100 µL phosphate buffered saline (PBS, pH 7.4) and 100 µL of 1-octanol. The mixture was vortexed for 1 min, followed by 5 min of centrifugation for phase separation. A sample of each phase (10 or 50 µL) was measured for radioactivity per volume (Packard Cobra II Autogamma, GMI Inc., USA). In case of FAPI-72 and -73, the reference compounds [^19F]-FAPI-72 and -73 were dissolved in PBS at a concentration of 1 mg/mL. 50 µL of these solutions were each mixed with 50 µL 1-octanol and processed by vortexing and centrifugation as described above. 1 µL of each phase was analyzed by HPLC and the individual content of compound was determined by peak integration. The area under the peaks of the individual runs was used to calculate the log D value.
Fig. 1 Overview of the synthesized precursors discussed in this study. The corresponding log D values were determined by detection of the radiolabeled tracer in 1-octanol and phosphate buffered saline (pH 7). For values labeled with an asterix, the log D was calculated from the relative content of the non-radioactive reference standards in the 1-octanol and the water phase by HPLC analysis and peak integration TEXT PRINTED IN THE PICTURE: FAPI-42: LOG D: -1.63±0.06 | FAPI-52: LOG D: -1.90±0.02 | FAPI-72: LOG D: 1.20±0.01* | FAPI-73: LOG D: 1.13±0.05* | FAPI-74: LOG D: -2.42±0.03 | FAPI-75: LOG D: -3.36±0.12 | FAPI-76: LOG D: -2.86±0.07

Serum stability assay = type: in vitro ADME, human; settings: 37 °C, 10 min to 4 h, radio-HPLC
Procedure: Five MBq of purified [^18F]AlF-FAPI-74 (20 GBq/µmol) were dried under reduced pressure and the residue incubated in 300 µL human serum (Sigma Aldrich Germany) at 37 °C. After different time intervals (10 min to 4 h) 20 µL samples were precipitated with 40 µL acetonitrile. The stability of the labeled peptide was monitored by radio-HPLC of the supernatant. A gradient of 0% to 30% acetonitrile in 10 min was used for enhanced separation performance.

[2] = small animal PET, HT-1080-FAP xenograft

Structure (SMILES): N#C[C@@H]1CCCN1C(=O)CNC(=O)c1ccnc2ccc(OCCCN3CCN(C(=O)CN4CCN(CC(=O)O)CCN(CC(=O)O)CC4)CC3)cc12 [FAPI-74]
- uptake WT (wild type HT1080 cells; wild type HT1080 control cells): 0.07 ± 0.03 %AD/10^6 cells
- fraction detected on wildtype HT1080 (wild type HT1080 cells; wildtype HT1080, text): < 0.1%
- Tumor Uptake (SUVmean) 8 min (HT-1080-FAP xenografts; HT1080-FAP transplanted nude mice, 8 min): 1.58
- Tumor Uptake (SUVmean) 22 min (HT-1080-FAP xenografts; HT1080-FAP transplanted nude mice, 22 min): 1.81
- Tumor Uptake (SUVmean) 57 min (HT-1080-FAP xenografts; HT1080-FAP transplanted nude mice, 57 min): 1.91
- Tumor Uptake (SUVmean) 120 min (HT-1080-FAP xenografts; HT1080-FAP transplanted nude mice, 120 min): 1.3
- excretion pathway (HT-1080-FAP xenografts; small animal PET in tumor bearing mice): favorable renal excretion
- tumor uptake SUVmean (HT-1080-FAP xenografts; small animal PET screening, discussion): approx. 2.0
- tumor-SUV max (HT-1080-FAP xenografts; [2]): 2.3
- tumor-SUV mean (HT-1080-FAP xenografts; [2]): 1.9
- logD [1]: -2.42 ± 0.03
- stability in human serum (Serum stability assay; listed as 18F-labeled FAPI-74): No degradation products were observed
- stability in human serum (Serum stability assay; listed as [^18F]AlF-FAPI-74): no degradation of the tracer or instability of the [^18F]AlF-NOTA complex
